The text below walks through data of ChEMBL document CHEMBL1129522, “Inhibitors of acyl-CoA:cholesterol O-acyltransferase. 17. Structure-activity relationships of several series of compounds derived from N-chlorosulfonyl isocyanate” (J Med Chem, 1996).

Molecules are shown by their SMILES. “And” between values parts separate entries of the source, which are not always exact repeats. Equal values may be shown once.

For assay [1], the target named is T1, Sterol O-acyltransferase 1 (Rattus norvegicus) (UniProt O70536).
T1 sequence (whole entry): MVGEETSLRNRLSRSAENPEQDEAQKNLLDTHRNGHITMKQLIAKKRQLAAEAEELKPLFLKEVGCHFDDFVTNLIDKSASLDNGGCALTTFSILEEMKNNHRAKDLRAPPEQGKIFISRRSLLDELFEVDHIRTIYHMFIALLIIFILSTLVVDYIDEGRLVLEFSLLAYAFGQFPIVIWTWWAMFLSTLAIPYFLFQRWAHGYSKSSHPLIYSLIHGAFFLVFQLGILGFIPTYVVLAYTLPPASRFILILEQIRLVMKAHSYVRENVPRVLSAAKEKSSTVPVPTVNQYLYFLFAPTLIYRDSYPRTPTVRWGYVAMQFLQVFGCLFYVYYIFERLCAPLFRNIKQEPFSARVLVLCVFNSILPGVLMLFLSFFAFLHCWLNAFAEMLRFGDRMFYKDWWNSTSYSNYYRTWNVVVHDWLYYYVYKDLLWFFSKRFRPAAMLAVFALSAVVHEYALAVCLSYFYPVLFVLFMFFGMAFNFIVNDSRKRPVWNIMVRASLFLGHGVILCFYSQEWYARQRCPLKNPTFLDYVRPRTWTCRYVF
Kind of assay: Acute in vivo activity was measured by the total plasma cholesterol concentration levels(TC) at dose 3 mg/kg. Format: functional, organism-based. On the set-up: dose 3 mg/kg.

A further assay concerns Rattus norvegicus. Kind of assay: Acute in vivo activity measured by total plasma cholesterol concentration levels (TC) at 30 mg/kg dose. Format: functional.
Assay [2] has as its target T2, Sterol O-acyltransferase 1 (Rattus norvegicus, UniProt O70536).
T2 sequence (O70536 whole entry): T1 sequence (whole entry)
Nature of the assay: In vitro inhibitory activity against acyl coenzyme A:cholesterol acyltransferase 1 in microsomes of rat liver.

As for `COc1cccc(OC)c1OC(=O)NS(=O)(=O)Oc1c(C(C)C)cccc1C(C)C` [listing 1 of 2 here], in assay [1], the Delta TC is -12% and -4%.

As for `CCC(C)N(C(=O)NS(=O)(=O)Oc1c(C(C)C)cccc1C(C)C)C(C)CC` (configuration not stated), the “Delta TC” value in the assay with Rattus norvegicus is on record as -20%. This compound also had an IC50 in assay [2] of 12 µM.

Regarding `CC(C)c1cc(Cl)cc(C(C)C)c1OC(=O)NS(=O)(=O)Oc1c(C(C)C)cccc1C(C)C`, the “Delta TC” value with Rattus norvegicus is reported as 2%. In assay [2], this compound yielded an IC50 of 42 µM.

Compound `CC(C)c1cccc(C(C)C)c1NS(=O)(=O)NC(=O)NC(c1ccccc1)c1ccccc1` registered an IC50 in assay [2] of 30 µM. The Delta TC in assay [1] was -5%.

On to `COc1cccc(OC)c1OC(=O)NS(=O)(=O)Oc1c(C(C)C)cccc1C(C)C` [listing 2 of 2 here], for which, in the assay with Rattus norvegicus, the “Delta TC” value was -61%. Further, the half-inhibitory concentration (IC50) in assay [2] is > 50 µM.

Compound `CC(C)c1cccc(C(C)C)c1OC(=O)NS(=O)(=O)N1CCc2ccccc21` yielded an IC50 in assay [2] of 43 µM. Also, the Delta TC in assay [1] is -31%.

Regarding `Cc1cc(C(C)(C)C)c(OC(=O)NS(=O)(=O)N(C)CCc2ccccn2)c(C(C)(C)C)c1` [listing 1 of 2 here], the IC50 in assay [2] turned out to be 31 µM.

With `CC(C)c1cccc(C(C)C)c1OS(=O)(=O)NC(=O)Oc1ccc(F)cc1`, the “Delta TC” value in the assay with Rattus norvegicus is recorded as -21%. In assay [2], the IC50 is > 50 µM.

Regarding `CC(C)c1ccc(OC(=O)NS(=O)(=O)Oc2c(C(C)C)cccc2C(C)C)c(C(C)C)c1`, the “Delta TC” value with Rattus norvegicus is on record as 6%. In addition, the IC50 in assay [2] was > 50 µM.

Regarding `CCN(CC)S(=O)(=O)NC(=O)Nc1c(C(C)C)cccc1C(C)C`, the IC50 in assay [2] was determined as 2.5 µM.

Consider `CC(C)c1cccc(C(C)C)c1OC(=O)[N-]S(=O)(=O)Oc1c(C(C)C)cccc1C(C)C.[Na+]`, for which the “Delta TC” value in the assay on Rattus norvegicus is reported as -74%.

`CCCCCCCCCCN(CCCCCCCCCC)S(=O)(=O)NC(=O)Oc1c(C(C)(C)C)cc(C)cc1C(C)(C)C` came in with an IC50 in assay [2] of 89 µM.

Take `CCCCN(CCCC)S(=O)(=O)NC(=O)Oc1c(C(C)(C)C)cc(C)cc1C(C)(C)C`: the IC50 in assay [2] stood at 3.2 µM. Compared with the last compound, the IC50 is about 28-fold lower.

As to `C=CCN(CC)S(=O)(=O)NC(=O)Nc1c(C(C)C)cccc1C(C)C`, in assay [2], it took 2.1 µM to reach half-maximal inhibition (IC50).

For the compound `CCCCCCCCN(C)S(=O)(=O)NC(=O)Oc1c(C(C)(C)C)cc(C)cc1C(C)(C)C`, in assay [2], inhibition was half-maximal at 18 µM (IC50). In assay [1], the Delta TC is 1%.

`CC(C)c1cccc(C(C)C)c1NC(=O)NS(=O)(=O)N1CCC(c2ccccc2)CC1` yielded an IC50 in assay [2] of 10.4 µM. For the same compound, the Delta TC in assay [1] is -17%.

`CC(C)c1cccc(C(C)C)c1OC(=O)NS(=O)(=O)N1CCCC1` came in with an IC50 in assay [2] of 53 µM. The Delta TC in assay [1] was -4%.

`COC(=O)NS(=O)(=O)Nc1c(C(C)C)cccc1C(C)C`: the IC50 in assay [2] is > 100 µM.

`CCCCCCOS(=O)(=O)NC(=O)Nc1c(C(C)C)cccc1C(C)C` returned an IC50 in assay [2] of 27 µM. For the same compound, the Delta TC in assay [1] is -8%.

`CCCCN(CCCC)S(=O)(=O)NC(=O)Oc1c(C(C)C)cccc1C(C)C` [listing 1 of 2 here] had an IC50 in assay [2] of 1.9 µM.

`CC(C)c1cccc(C(C)C)c1OC(=O)NS(=O)(=O)N(Cc1ccccc1)Cc1ccccc1` gave an IC50 in assay [2] of 20 µM. For the same compound, the Delta TC in assay [1] was -17%.

For the compound `CCCCN(CCCC)S(=O)(=O)NC(=O)Nc1c(C(C)C)cccc1C(C)C` [listing 1 of 2 here], in assay [2], the IC50 came to 0.53 µM.

For `CCCCN(CCCC)S(=O)(=O)N(C)C(=O)Nc1c(C(C)C)cccc1C(C)C`, in assay [2], the IC50 is > 5 µM.

For `CC(C)NS(=O)(=O)NC(=O)Nc1c(C(C)C)cccc1C(C)C`, the IC50 in assay [2] is 18 µM.

Turning to `CCCCCCCCCCCCCCCCCCN(C)S(=O)(=O)NC(=O)Nc1c(C(C)C)cccc1C(C)C`, 1.9 µM corresponded to half-maximal inhibition in assay [2] (IC50). Moreover, the Delta TC in assay [1] was -18%.

In turn, `CCCCCCNS(=O)(=O)NC(=O)Oc1c(C(C)(C)C)cc(C)cc1C(C)(C)C` registered an IC50 in assay [2] of 19.4 µM. Also, the Delta TC in assay [1] was -10%.

With `CC(C)c1cccc(C(C)C)c1NS(=O)(=O)NC(=O)N(Cc1ccccc1)Cc1ccccc1`, the IC50 in assay [2] was 16 µM.

In the case of `CC(C)c1cccc(C(C)C)c1OC(=O)NS(=O)(=O)N1CCN(C)CC1`, the IC50 in assay [2] was > 100 µM.

As for `CCCCCCCCCCC(C)OS(=O)(=O)NC(=O)Nc1c(C(C)C)cccc1C(C)C` (configuration not stated), in assay [1], the Delta TC is -48%.

On to `CCCCN(CCCC)S(=O)(=O)NC(=O)Nc1c(C(C)C)cccc1C(C)C` [listing 2 of 2 here], for which the concentration for half-maximal inhibition (IC50) in assay [2] amounted to 0.36 µM.

The compound `CCCCN(CC)S(=O)(=O)NC(=O)Nc1c(C(C)C)cccc1C(C)C` showed an IC50 in assay [2] of 1.2 µM. Also, in assay [1], the Delta TC was -29%.

For the compound `CC(C)c1cccc(C(C)C)c1NC(=O)NS(=O)(=O)N(CCCN(C)C)CCCN(C)C`, the midpoint of inhibition in assay [2], the IC50, lay at 55 µM.

With `CCCCCCNS(=O)(=O)NC(=O)Nc1c(C(C)C)cccc1C(C)C`, the IC50 in assay [2] is 8.1 µM. This IC50 lies about 6.8-fold lower than the previous one.

In assay [2], `CCCCCCCCCCCCOS(=O)(=O)NC(=O)Nc1c(C(C)C)cccc1C(C)C` registered an IC50 of 6.8 µM.

`Cc1cc(C(C)(C)C)c(OC(=O)NS(=O)(=O)N(C)CCc2ccccn2)c(C(C)(C)C)c1` [listing 2 of 2 here] returned an IC50 in assay [2] of 31 µM. This IC50 lies about 4.6-fold higher than the previous one.

As for `CCCCCCCCN(CCCCCCCC)S(=O)(=O)NC(=O)Oc1c(C(C)(C)C)cc(C)cc1C(C)(C)C`, in assay [2], half-maximal inhibition (IC50) required 2.7 µM.

`CCCCN(C)S(=O)(=O)NC(=O)Nc1c(C(C)C)cccc1C(C)C` gave an IC50 in assay [2] of 2.3 µM. Further, in assay [1], the Delta TC is -37%.

For `CCCCCCCCCCOS(=O)(=O)NC(=O)Nc1c(C(C)C)cccc1C(C)C`, in assay [2], the IC50 is > 10 µM.

In the case of `CC(C)c1cccc(C(C)C)c1OC(=O)NS(=O)(=O)N1CCCCC1`, in assay [2], the IC50 was > 100 µM.

In assay [2], `CCCCCCCCCCN(CCCCCCCCCC)S(=O)(=O)NC(=O)Nc1c(C(C)C)cccc1C(C)C` gave an IC50 of 0.72 µM. For the same compound, the Delta TC in assay [1] was -17%.

`CCCCCCN(CCCCCC)S(=O)(=O)NC(=O)Oc1c(C(C)(C)C)cc(C)cc1C(C)(C)C` displayed an IC50 in assay [2] of 4.3 µM.

In the case of `CCCCCN(CCCCC)S(=O)(=O)NC(=O)Oc1c(C(C)(C)C)cc(C)cc1C(C)(C)C`, the IC50 in assay [2] was 2.2 µM.

In turn, `CCCCCCCCCCCCOC(=O)NS(=O)(=O)Nc1c(OC)cc(OC)cc1OC` yielded an IC50 in assay [2] of 30 µM.

On to `Cc1cc(C(C)(C)C)c(OC(=O)NS(=O)(=O)N(C(C)C)C(C)C)c(C(C)(C)C)c1`, for which, in assay [2], the IC50 was found to be 3.2 µM.

`C=CCN(CC=C)S(=O)(=O)NC(=O)Nc1c(C(C)C)cccc1C(C)C` came in with an IC50 in assay [2] of 2.7 µM. Besides, in assay [1], the Delta TC was 2%.

In the case of `COc1cc(C(C)(C)C)c(OC(=O)NS(=O)(=O)NCC(c2ccccc2)c2ccccc2)c(C(C)(C)C)c1`, in assay [2], 82 µM corresponded to half-maximal inhibition (IC50). Also, in assay [1], the Delta TC is -15%.

In assay [2], `Cc1cc(C(C)(C)C)c(OC(=O)NS(=O)(=O)N(CC2CCCO2)CC2CCCO2)c(C(C)(C)C)c1` (configuration not stated) displayed an IC50 of 21 µM.

As for `CC(C)c1cccc(C(C)C)c1NC(=O)NS(=O)(=O)N1CCCCC1`, the IC50 in assay [2] stood at 17 µM.

With `CC(C)c1cccc(C(C)C)c1OC(=O)NS(=O)(=O)N1CCOCC1`, the IC50 in assay [2] is > 100 µM.

On to `COC(=O)NS(=O)(=O)Oc1c(C(C)C)cccc1C(C)C`, for which the IC50 in assay [2] was > 100 µM.

In assay [2], `CCCCCCNS(=O)(=O)NC(=O)Oc1c(C(C)C)cccc1C(C)C` had an IC50 of 21 µM. For the same compound, the Delta TC in assay [1] was -12%.

`CC(C)c1cccc(C(C)C)c1NC(=O)NS(=O)(=O)N(C)C` displayed an IC50 in assay [2] of 3.9 µM.

In assay [2], `CCCCN(CCCC)S(=O)(=O)NC(=O)Oc1c(C(C)C)cccc1C(C)C` [listing 2 of 2 here] yielded an IC50 of 1.9 µM.

`CN(C(=O)Oc1c(C(C)(C)C)cccc1C(C)(C)C)S(=O)(=O)NC(c1ccccc1)c1ccccc1` had an IC50 in assay [2] of 4.6 µM.

In turn, `CCCCCCCCCCCCOC(=O)NS(=O)(=O)Nc1c(C(C)C)cccc1C(C)C` returned an IC50 in assay [2] of 33 µM. Compared with the last compound, the IC50 is about 7.2-fold higher.

`CC(C)c1cccc(C(C)C)c1NS(=O)(=O)NC(=O)Oc1c(-c2ccccc2)cccc1-c1ccccc1`: in assay [2], the IC50 is > 25 µM.

For the compound `CC(C)c1cccc(C(C)C)c1NC(=O)NS(=O)(=O)N1CCCC1`, 15 µM corresponded to half-maximal inhibition in assay [2] (IC50).

For orientation: IC50 means the concentration that inhibits the measured activity by half. Low values mean greater potency in that assay, high ones weaker potency in that assay.
